From patent US7737169B2, “Anionically substituted 7-nitroindoline derivatives and their uses” (Medical Research Council, priority 2005, dated 2010)

Columns and labels:
GABA receptors = settings: caged ester before photolysis; cited from earlier work
GABA channels = assay: photolytic release of GABA onto neuronal cells, current responses (FIG. 1); type: cell-based
Excerpt: FIG. 1. Current responses to photolytic release of GABA from various concentrations of 6 onto two different neuronal cells, as specified in the FIGURE. The experimental set-up and protocol was as described in reference 4.
A previous evaluation of nitroindoline-caged amino acids in neural tissue has been published^4. […] Tests described here were to assess the photolytic efficiency of GABA release in a neurophysiological experiment with particular attention to point (3), namely the presence or absence of interference of the new caged GABA with GABA-activated channels. If interference is low the expectation is that the rise-time of the receptor activation by photoreleased GABA in the presence of high cage concentration should be similar to that generated by endogenously released GABA, rising in 1-2 ms.

## NCCCC(=O)OC(C(=O)O)c1ccccc1[N+](=O)[O-] (stereo not drawn) [Compound 5, α-carboxy-2-nitrobenzyl ester of GABA]
GABA receptors
  pharmacological effects: no pharmacological effects

## NCCCC(=O)N1CCc2c(OC(COP(=O)(O)O)COP(=O)(O)O)ccc([N+](=O)[O-])c21 [Compound 6, 1-(4-Aminobutanoyl)-4-[1,3-bis(dihydroxyphosphoryloxy)propan-2-yloxy]-7-nitroindoline]
GABA channels; 0.5 mM GABA released, 1.5 mM caged GABA present, FIG. 1 left panel
  rise-time of current through GABA channels: 1 ms
GABA channels; 20-200 μm GABA released by different photolysis intensities, 1.4 mM caged GABA present, FIG. 1 right panel
  amplitude and rate of rise of currents through GABA channels: increasing amplitudes and rates of rise at high concentration
